From PubChem BioAssay (NCI)
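All cell lines were grown in 96-well plates and treated with compound for 48 hours. Here, GI50 denotes the concentration required for 50% inhibition of growth. TGI: concentration producing complete growth inhibition.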

How the values were obtained:
Experiment in all cases: growth of human tumour cells (NCI), 48 h
HOP-62 NSCLC = test system: HOP-62 NSCLC
HOP-92 NSCLC = test system: HOP-92 NSCLC
LOX IMVI melanoma = test system: LOX IMVI melanoma
MCF7 breast = test system: MCF7 breast
MOLT-4 leukemia = test system: MOLT-4 leukemia
OVCAR-5 ovarian = test system: OVCAR-5 ovarian
SK-MEL-5 melanoma = test system: SK-MEL-5 melanoma
UO-31 renal = test system: UO-31 renal
BT-549 breast = test system: BT-549 breast
M14 melanoma = test system: M14 melanoma

| SMILES | TGI (HOP-62 NSCLC) | TGI (HOP-92 NSCLC) | TGI (LOX IMVI melanoma) | TGI (MCF7 breast) | TGI (MOLT-4 leukemia) | TGI (OVCAR-5 ovarian) | TGI (SK-MEL-5 melanoma) | TGI (UO-31 renal) | TGI (BT-549 breast) | TGI (M14 melanoma) | GI50 (BT-549 breast) | GI50 (HOP-62 NSCLC) | GI50 (HOP-92 NSCLC) | GI50 (M14 melanoma) | GI50 (MCF7 breast) | GI50 (MOLT-4 leukemia) | GI50 (OVCAR-5 ovarian) | GI50 (SK-MEL-5 melanoma) | GI50 (UO-31 renal) | GI50 (LOX IMVI melanoma) |
| --- | --- | --- | --- | --- | --- | --- | --- | --- | --- | --- | --- | --- | --- | --- | --- | --- | --- | --- | --- | --- |
| CCCCOc1ccc(OCCCCCCCCCC[N+](C)(C)C)cc1 | 13.7 µM | 3.65 µM | 3.81 µM | 14.8 µM | 3.27 µM | 17.2 µM | 3.81 µM | 23 µM |  |  |  |  |  |  |  |  |  |  |  |  |
| CCC(O)(Cc1ccc(OC)cc1)c1ccc(OC)cc1 (centres undefined) | > 100 µM | > 100 µM | > 100 µM | > 100 µM | > 100 µM | > 100 µM | > 100 µM | > 100 µM | > 100 µM | > 100 µM |  |  |  |  |  |  |  |  |  |  |
| C=C(C)OCOCCOC | > 100 µM |  | > 100 µM | > 100 µM | > 100 µM | > 100 µM | > 100 µM | > 100 µM | > 100 µM | > 100 µM |  |  |  |  |  |  |  |  |  |  |
| Cn1c(=O)c(-c2ccccc2)c(O)c2ccccc21 | > 100 µM | > 100 µM | > 100 µM | > 100 µM | > 100 µM | > 100 µM | > 100 µM | > 100 µM | > 100 µM |  |  |  |  |  |  |  |  |  |  |  |
| C/C(Cl)=N\OC(=O)Nc1ccc(C)cc1 | > 100 µM | 37.1 µM | 43.7 µM | 25.3 µM |  | 32.6 µM | 31.5 µM | 31.3 µM |  | 30.9 µM |  |  |  |  |  |  |  |  |  |  |
| CN(C)CCNC(=O)c1cc(Cl)cc2ccc(-c3ccccc3)nc12 | 10.3 µM | 9.35 µM | 6.7 µM | 14.5 µM | 2.92 µM | 13.7 µM | 3.82 µM | 4.76 µM |  |  |  |  |  |  |  |  |  |  |  |  |
| Cc1ccc(C(=O)N/N=C(\N=Nc2ccccc2)c2ccc(N(C)C)cc2)cc1 |  | > 100 µM | > 100 µM | > 100 µM | > 100 µM | > 100 µM | > 100 µM | > 100 µM | > 100 µM | > 100 µM |  |  |  |  |  |  |  |  |  |  |
| COc1cc(-c2n/c(=C\c3c(O)[nH]c4ccc(Cl)cc34)cc3c2=Nc2ccccc2-3)ccc1F | 2.52 µM | 3.82 µM |  | 3.26 µM | 3.32 µM | 13.3 µM | 10.8 µM | 2.5 µM | 3.84 µM | 3.48 µM | 2.06 µM | 1.17 µM | 1.73 µM | 1.89 µM | 1.25 µM | 1.08 µM | 3.9 µM | 2.84 µM | 1.12 µM |  |
| N#C/C(=C/n1c(=S)[nH]c2ccc([N+](=O)[O-])cc21)C(N)=O | > 100 µM | > 100 µM | > 100 µM | > 100 µM | > 100 µM | > 100 µM | > 100 µM | > 100 µM |  | > 100 µM |  |  |  |  |  |  |  |  |  |  |
| O=c1cc(-c2ccncc2)[nH]c2cc3c(cc12)OCO3 | > 100 µM | > 100 µM |  | > 100 µM | > 100 µM | > 100 µM | > 100 µM | > 100 µM |  | > 100 µM |  |  |  |  |  |  |  |  |  |  |
| CS(=O)(=O)CSCSSCS(C)(=O)=O | > 100 µM | 98.2 µM | 71.2 µM |  | > 82.9 µM | > 93.8 µM | > 100 µM | > 58.3 µM |  | 40.8 µM |  |  |  |  |  |  |  |  |  |  |
| COc1cccc2c1C(=O)c1c(O)c3c(c(O)c1C2=O)C[C@H](O)C[C@@H]3OC1CC(N)C(O)C(C)O1 (some centres undefined) | 10.5 µM | 17.6 µM | 2.92 µM | 21.2 µM | 0.144 µM | 11.8 µM | 2.22 µM | 19.7 µM | 16 µM |  |  |  |  |  |  |  |  |  |  |  |
| CCC(CO)Nc1nc(NCc2ccccc2)c2ncn(C(C)C)c2n1 (centres undefined) | 33.9 µM | 56.2 µM | > 100 µM | > 57.3 µM |  | > 69.1 µM | > 51.8 µM | 40.7 µM | > 55.3 µM | 32.7 µM |  |  |  |  |  |  |  |  |  |  |
| O=S(=O)(O)c1ccc(N=Nc2ccc(N=Nc3ccc(/C=C/c4ccc(N=[N+]([O-])c5ccc(/C=C/c6ccc(N=Nc7ccc(N=Nc8ccc(S(=O)(=O)O)cc8)cc7)cc6S(=O)(=O)O)c(S(=O)(=O)O)c5)cc4S(=O)(=O)O)c(S(=O)(=O)O)c3)cc2)cc1 | > 100 µM | > 100 µM | > 100 µM | > 100 µM | > 100 µM | > 100 µM | > 100 µM | > 100 µM |  |  |  |  |  |  |  |  |  |  |  |  |
| CN1C(=O)N(C)C(O)C(Cl)(Br)C1=O (centres undefined) |  |  | > 100 µM | > 100 µM | > 100 µM | > 100 µM | > 100 µM | > 100 µM | > 100 µM | > 100 µM |  |  |  |  |  |  |  |  |  |  |
| CCOC(=O)C1(C#N)C(c2ccccc2)CC(O)(c2ccc(Cl)cc2)C(C(=O)c2ccc(Cl)cc2)C1c1ccccc1 (centres undefined) | > 100 µM |  | > 100 µM |  | > 100 µM | > 100 µM | > 100 µM | > 100 µM |  | > 100 µM |  |  |  |  |  |  |  |  |  |  |
| CSc1cc(=O)n2c3ccccc3c3ccnc1c32 | > 100 µM | > 100 µM | > 100 µM | > 100 µM | > 100 µM | > 100 µM | > 100 µM | > 100 µM |  |  |  |  |  |  |  |  |  |  |  |  |
| COC(=O)C1=C(C(=O)OC)SC(=CC#CC=C2SC(C(=O)OC)=C(C(=O)OC)S2)S1 | 12.2 µM | 35.2 µM | 44.2 µM |  | > 100 µM | > 100 µM | > 86.5 µM | 14.1 µM |  | > 76.2 µM |  |  |  |  |  |  |  |  |  |  |
| COc1cc2cc(C(=O)N3C[C@H](CCl)c4c3cc(N)c3ccccc43)[nH]c2c(OC)c1OC | 0.112 µM | > 50 µM | 0.0581 µM | 13 µM | 0.246 µM | 0.552 µM | < 0.005 µM |  |  | 0.0137 µM |  | 0.005 µM |  | 0.005 µM | 0.005 µM |  | 0.005 µM |  |  | 0.005 µM |
| CC(C)C(CC(=O)OCC(CO)OC(=O)CC(C(C)C)C(C)C)C(C)C (centres undefined) | 23 µM | 16.9 µM |  | 33.5 µM | 31.5 µM | 26.1 µM | 24.7 µM | 30.1 µM | 33.1 µM | 29.5 µM |  |  |  |  |  |  |  |  |  |  |
| NC(=O)c1csc(C2(O)COC(CO)C2O)n1 (centres undefined) | > 100 µM | > 100 µM | > 100 µM | > 100 µM |  | > 100 µM | > 100 µM | > 100 µM | > 100 µM | > 100 µM |  |  |  |  |  |  |  |  |  |  |
| COC(=O)Cc1ccc2c(cnn2-c2ccccc2)c1OC | > 10 µM |  | > 10 µM | > 10 µM | > 10 µM | > 10 µM | > 10 µM |  | > 10 µM | > 10 µM |  |  |  |  |  |  |  |  |  |  |
| CCP(=O)(OC)C1=CCN(C(=O)OCC[Si](C)(C)C)CC1 (centres undefined) | > 100 µM | > 100 µM | > 100 µM | > 100 µM | > 100 µM | > 100 µM | > 100 µM | > 100 µM |  | > 100 µM |  |  |  |  |  |  |  |  |  |  |
